Test results as given in US10662195B2, “Protein kinase conjugates and inhibitors” (Celgene Avilomics Research, Inc., priority 2009, dated 2020).
Like-named read-outs stand apart in the source and are kept apart here. Blank lines part the entries; values can stand above or below the compound they belong to.

Columns and labels:
[1] = biological target: KDR (Homo sapiens, UniProt P35968); experiment: KDR Omnia continuous-read kinase assay; type: biochemical; design: purchased Invitrogen or BPS Bioscience PV3660 or 40301
KDR, sequence (P35968 20-1356): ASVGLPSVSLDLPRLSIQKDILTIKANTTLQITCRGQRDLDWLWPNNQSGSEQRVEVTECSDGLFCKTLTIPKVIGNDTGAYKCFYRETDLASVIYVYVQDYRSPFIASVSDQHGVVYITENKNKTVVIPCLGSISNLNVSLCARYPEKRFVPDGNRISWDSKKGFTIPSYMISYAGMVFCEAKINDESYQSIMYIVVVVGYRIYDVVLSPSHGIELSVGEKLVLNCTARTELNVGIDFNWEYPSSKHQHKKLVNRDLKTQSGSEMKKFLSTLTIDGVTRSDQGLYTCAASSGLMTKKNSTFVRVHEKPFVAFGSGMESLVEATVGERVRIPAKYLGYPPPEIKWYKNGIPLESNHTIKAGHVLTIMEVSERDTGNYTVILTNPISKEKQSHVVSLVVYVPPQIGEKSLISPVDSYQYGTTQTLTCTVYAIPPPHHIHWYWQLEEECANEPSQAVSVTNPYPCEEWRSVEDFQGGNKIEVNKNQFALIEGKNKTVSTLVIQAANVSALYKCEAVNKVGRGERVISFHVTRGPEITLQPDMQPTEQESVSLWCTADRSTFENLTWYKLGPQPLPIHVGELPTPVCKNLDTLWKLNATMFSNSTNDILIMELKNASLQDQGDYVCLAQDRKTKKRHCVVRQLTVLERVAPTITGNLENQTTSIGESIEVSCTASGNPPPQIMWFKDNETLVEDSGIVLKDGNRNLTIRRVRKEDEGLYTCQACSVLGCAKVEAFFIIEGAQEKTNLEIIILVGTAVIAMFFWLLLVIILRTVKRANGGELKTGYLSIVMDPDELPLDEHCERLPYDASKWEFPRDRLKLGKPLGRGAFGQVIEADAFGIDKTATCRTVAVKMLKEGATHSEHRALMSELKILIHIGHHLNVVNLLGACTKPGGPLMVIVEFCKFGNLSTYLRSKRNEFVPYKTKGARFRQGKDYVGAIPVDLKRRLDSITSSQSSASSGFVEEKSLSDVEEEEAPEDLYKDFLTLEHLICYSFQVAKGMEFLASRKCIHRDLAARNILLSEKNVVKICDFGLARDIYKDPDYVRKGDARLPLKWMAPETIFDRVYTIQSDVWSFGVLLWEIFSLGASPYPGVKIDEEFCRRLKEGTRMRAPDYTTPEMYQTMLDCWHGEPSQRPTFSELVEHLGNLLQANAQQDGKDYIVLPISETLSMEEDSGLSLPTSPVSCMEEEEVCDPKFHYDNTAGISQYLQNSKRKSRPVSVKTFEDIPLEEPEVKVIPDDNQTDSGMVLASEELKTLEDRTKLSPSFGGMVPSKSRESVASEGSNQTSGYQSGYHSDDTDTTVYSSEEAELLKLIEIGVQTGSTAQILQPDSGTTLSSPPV
Procedure: (§1) A. KDR and FLT-3 Omnia Assay for Potency Assessment:
(§2) The protocol below describes a continuous-read kinase assay to measure inherent potency of Avila Therapeutics' compounds against active KDR and FLT-3 enzymes. The assay was performed substantially as described by the vendor (Invitrogen, Carlsbad, Calif.; http://www.invitrogen.com/content.cfm?pageid=11338.)
Briefly, 10× stocks of KDR from Invitrogen or BPS Bioscience (PV3660 or 40301) and FLT-3 (PV3182) enzymes, 1.13×ATP (AS001A) and Y9-Sox or Y12-Sox peptide substrates (KCZ1001) were prepared in 1× kinase reaction buffer consisting of 20 mM Tris, pH 7.5, 5 mM MgCl2, 1 mM EGTA, 5 mM β-glycerophosphate, 5% glycerol (10× stock, KB002A) and 0.2 mM DTT (DS001A). 5 μL of enzyme were pre-incubated in a Corning (#3574) 384-well, white, non-binding surface microtiter plate (Corning, N.Y.) for 30 min at 27° C. with a 0.5 μL volume of 50% DMSO and serially diluted compounds prepared in 50% DMSO. Kinase reactions were started with the addition of 45 μL of the ATP/Y9 or Y5-Sox peptide substrate mix and monitored every 30-90 seconds for 60 minutes at λex360/λem485 in a Synergy^4 plate reader from BioTek (Winooski, Vt.). At the conclusion of each assay, progress curves from each well were examined for linear reaction kinetics and fit statistics (R^2, 95% confidence interval, absolute sum of squares). Initial velocity (0 minutes to 20+ minutes) from each reaction was determined from the slope of a plot of relative fluorescence units vs time (minutes) and then plotted against inhibitor concentration to estimate IC50 from Log [Inhibitor] vs Response, Variable Slope model in GraphPad Prism from GraphPad Software (San Diego, Calif.). […]
(§3) The reported IC50_APP and IC50 values are in units of nM.

[2] = biological target: BTK (Homo sapiens, UniProt Q06187); experiment: Omnia assay for potency assessment against BTK; type: biochemical
BTK, sequence (Q06187 whole entry): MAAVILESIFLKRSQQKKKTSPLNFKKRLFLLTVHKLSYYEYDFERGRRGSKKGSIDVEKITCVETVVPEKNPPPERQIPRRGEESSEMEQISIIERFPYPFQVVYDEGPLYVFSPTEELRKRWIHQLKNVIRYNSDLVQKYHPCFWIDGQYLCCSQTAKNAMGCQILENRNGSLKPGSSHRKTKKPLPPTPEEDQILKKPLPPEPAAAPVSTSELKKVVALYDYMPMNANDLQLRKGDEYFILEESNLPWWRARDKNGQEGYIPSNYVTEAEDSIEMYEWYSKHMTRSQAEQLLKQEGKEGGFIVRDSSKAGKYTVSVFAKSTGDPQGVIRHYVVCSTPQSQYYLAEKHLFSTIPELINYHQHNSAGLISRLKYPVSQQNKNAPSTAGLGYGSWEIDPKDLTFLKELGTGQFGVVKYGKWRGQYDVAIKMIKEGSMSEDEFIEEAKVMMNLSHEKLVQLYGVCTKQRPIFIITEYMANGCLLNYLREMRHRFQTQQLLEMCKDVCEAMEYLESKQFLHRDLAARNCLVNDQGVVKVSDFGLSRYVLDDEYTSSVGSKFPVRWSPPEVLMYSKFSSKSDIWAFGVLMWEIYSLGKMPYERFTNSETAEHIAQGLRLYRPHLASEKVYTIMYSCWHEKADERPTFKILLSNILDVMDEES
From the text: B. Omnia Assay Protocol for Potency Assessment Against BTK
Below describes the protocol using EGFR-WT and EGFR-T790M/L858R and the protocol BTK-optimized reagent conditions then follow.
The mechanics of the assay platform are best described by the vendor (Invitrogen, Carlsbad, Calif.) on their website at the following URL: http://www.invitrogen.com/content.cfm?pageid=11338 or http://www.invitrogen.com/site/us/en/home/Products-and-Services/Applications/Drug-Discovery/Target-and-Lead-Identification-and-Validation/KinaseBiology/KB-Misc/Biochemical-Assays/Omnia-Kinase-Assays.html.
Briefly, 10× stocks of EGFR-WT (PV3872) from Invitrogen and EGFR-T790M/L858R (40350) from BPS Bioscience, San Diego, Calif., 1.13×ATP (AS001A) and appropriate Tyr-Sox conjugated peptide substrates (KCZ1001) were prepared in 1× kinase reaction buffer consisting of 20 mM Tris, pH 7.5, 5 mM MgCl2, 1 mM EGTA, 5 mM β-glycerophosphate, 5% glycerol (10× stock, KB002A) and 0.2 mM DTT (DS001A). 5 μL of each enzyme were pre-incubated in a Corning (#3574) 384-well, white, non-binding surface microtiter plate (Corning, N.Y.) for 30 min. at 27° C. with a 0.5 μL volume of 50% DMSO and serially diluted compounds prepared in 50% DMSO. Kinase reactions were started with the addition of 45 μL of the ATP/Tyr-Sox peptide substrate mix and monitored every 30-90 seconds for 60 minutes at λex360/λem485 in a Synergy^4 plate reader from BioTek (Winooski, Vt.). At the conclusion of each assay, progress curves from each well were examined for linear reaction kinetics and fit statistics (R^2, 95% confidence interval, absolute sum of squares). Initial velocity (0 minutes to ˜30 minutes) from each reaction was determined from the slope of a plot of relative fluorescence units vs time (minutes) and then plotted against inhibitor concentration to estimate IC50 from log [Inhibitor] vs Response, Variable Slope model in GraphPad Prism from GraphPad Software (San Diego, Calif.).
The modified BTK-optimized reagent conditions for the above protocol are:
[BTK]=5 nM, [ATP]=[…], [Y5-Sox]=[…] (ATP KMapp˜[…]).
as §3

[3] = biological target: FAK (PTK2) (Homo sapiens, UniProt Q05397); experiment: Mass spectral analysis of intact FAK after incubation with compound; type: binding; settings: 1 hr, 10× excess of compound to protein, intact protein MALDI
FAK (PTK2), sequence (Q05397 whole entry): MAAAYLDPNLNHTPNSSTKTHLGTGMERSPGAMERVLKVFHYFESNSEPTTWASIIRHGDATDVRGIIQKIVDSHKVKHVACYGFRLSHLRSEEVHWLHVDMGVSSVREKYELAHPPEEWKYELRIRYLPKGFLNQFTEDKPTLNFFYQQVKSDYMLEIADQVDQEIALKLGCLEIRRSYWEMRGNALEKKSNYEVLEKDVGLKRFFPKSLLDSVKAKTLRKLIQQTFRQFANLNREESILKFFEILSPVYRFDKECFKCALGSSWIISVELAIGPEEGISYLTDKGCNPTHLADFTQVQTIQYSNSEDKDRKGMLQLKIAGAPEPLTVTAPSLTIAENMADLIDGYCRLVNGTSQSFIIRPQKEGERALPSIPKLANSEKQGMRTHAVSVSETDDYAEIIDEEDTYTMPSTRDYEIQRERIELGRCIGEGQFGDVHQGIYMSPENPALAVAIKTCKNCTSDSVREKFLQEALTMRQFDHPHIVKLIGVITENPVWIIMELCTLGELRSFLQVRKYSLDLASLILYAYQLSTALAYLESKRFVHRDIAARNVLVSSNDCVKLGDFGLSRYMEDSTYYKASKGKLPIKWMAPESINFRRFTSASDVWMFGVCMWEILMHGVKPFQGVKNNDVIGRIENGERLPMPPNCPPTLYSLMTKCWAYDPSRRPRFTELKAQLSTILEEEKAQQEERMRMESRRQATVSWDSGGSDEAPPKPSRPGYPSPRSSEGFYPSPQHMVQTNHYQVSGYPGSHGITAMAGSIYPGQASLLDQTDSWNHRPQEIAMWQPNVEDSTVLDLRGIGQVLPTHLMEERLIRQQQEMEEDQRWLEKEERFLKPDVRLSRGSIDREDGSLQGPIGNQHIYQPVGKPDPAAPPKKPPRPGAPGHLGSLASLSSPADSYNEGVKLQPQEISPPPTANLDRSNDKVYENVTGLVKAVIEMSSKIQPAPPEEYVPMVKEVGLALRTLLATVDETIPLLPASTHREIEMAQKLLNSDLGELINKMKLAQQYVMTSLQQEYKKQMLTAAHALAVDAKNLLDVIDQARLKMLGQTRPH
Procedure: Intact FAK (PTK2) was incubated for 1 hr at a 10× fold access of compound IV-29 to protein. 3 ul aliquots of the samples were diluted with 10 ul of 0.1% TFA prior to micro C4 ZipTipping directly onto the MALDI target using Sinapinic acid as the desorption matrix (10 mg/ml in 0.1% TFA:Acetonitrile 50:50). Mass spec analysis was run on intact FAK (PTK2) protein (m/z 146,672 Da), and on FAK that was incubated with compound IV-29 (mw=669.2).

[4] = biological target: T1, FLT3 (Homo sapiens, UniProt P36888); experiment: FLT-3 Omnia continuous-read kinase assay; type: biochemical
T1 construct: purchased PV3182
T1 sequence (P36888 27-993): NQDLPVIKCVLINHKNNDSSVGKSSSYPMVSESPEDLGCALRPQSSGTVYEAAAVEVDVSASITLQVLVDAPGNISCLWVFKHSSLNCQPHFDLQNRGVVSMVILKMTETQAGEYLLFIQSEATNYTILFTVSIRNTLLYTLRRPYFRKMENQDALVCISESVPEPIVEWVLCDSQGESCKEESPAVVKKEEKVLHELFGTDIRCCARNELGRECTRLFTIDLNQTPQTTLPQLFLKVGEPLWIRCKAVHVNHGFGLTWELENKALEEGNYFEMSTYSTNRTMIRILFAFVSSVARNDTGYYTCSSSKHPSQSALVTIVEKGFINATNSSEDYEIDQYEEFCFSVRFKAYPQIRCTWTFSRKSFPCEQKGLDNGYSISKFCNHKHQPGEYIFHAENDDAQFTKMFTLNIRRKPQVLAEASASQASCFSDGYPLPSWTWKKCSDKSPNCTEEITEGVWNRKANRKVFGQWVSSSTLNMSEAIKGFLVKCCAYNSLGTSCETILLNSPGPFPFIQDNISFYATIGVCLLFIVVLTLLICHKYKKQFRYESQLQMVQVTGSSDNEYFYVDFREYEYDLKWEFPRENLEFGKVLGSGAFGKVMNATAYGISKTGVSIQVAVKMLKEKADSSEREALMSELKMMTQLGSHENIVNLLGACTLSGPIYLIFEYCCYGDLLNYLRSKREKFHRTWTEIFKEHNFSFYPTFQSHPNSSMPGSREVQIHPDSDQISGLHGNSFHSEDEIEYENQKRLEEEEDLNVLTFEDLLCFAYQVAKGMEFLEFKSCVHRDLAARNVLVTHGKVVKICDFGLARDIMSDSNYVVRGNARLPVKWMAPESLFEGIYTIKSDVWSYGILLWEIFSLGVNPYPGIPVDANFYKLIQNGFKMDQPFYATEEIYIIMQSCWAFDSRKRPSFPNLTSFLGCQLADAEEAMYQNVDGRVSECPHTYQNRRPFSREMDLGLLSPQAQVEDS
Procedure: as §1, §2
Briefly, 10× stocks of KDR from Invitrogen or BPS Bioscience (PV3660 or 40301) and FLT-3 (PV3182) enzymes, 1.13×ATP (AS001A) and Y9-Sox or Y12-Sox peptide substrates (KCZ1001) were prepared in 1× kinase reaction buffer consisting of 20 mM Tris, pH 7.5, 5 mM MgCl2, 1 mM EGTA, 5 mM β-glycerophosphate, 5% glycerol (10× stock, KB002A) and 0.2 mM DTT (DS001A). 5 μL of enzyme were pre-incubated in a Corning (#3574) 384-well, white, non-binding surface microtiter plate (Corning, N.Y.) for 30 min at 27° C. with a 0.5 μL volume of 50% DMSO and serially diluted compounds prepared in 50% DMSO. Kinase reactions were started with the addition of 45 μL of the ATP/Y9 or Y5-Sox peptide substrate mix and monitored every 30-90 seconds for 60 minutes at λex360/λem485 in a Synergy^4 plate reader from BioTek (Winooski, Vt.). At the conclusion of each assay, progress curves from each well were examined for linear reaction kinetics and fit statistics (R^2, 95% confidence interval, absolute sum of squares). Initial velocity (0 minutes to 20+ minutes) from each reaction was determined from the slope of a plot of relative fluorescence units vs time (minutes) and then plotted against inhibitor concentration to estimate IC50 from Log [Inhibitor] vs Response, Variable Slope model in GraphPad Prism from GraphPad Software (San Diego, Calif.).
[FLT-3]=15 nM, [ATP]=500 μM and [Y5-Sox peptide]=10 μM (ATP KMapp=470 μM)
as §3

[5] = biological target: CKIT (Homo sapiens, UniProt P10721); experiment: c-Kit Omnia kinase assay; type: biochemical; settings: read-out: IC50_APP CKIT
CKIT, sequence (P10721 26-976): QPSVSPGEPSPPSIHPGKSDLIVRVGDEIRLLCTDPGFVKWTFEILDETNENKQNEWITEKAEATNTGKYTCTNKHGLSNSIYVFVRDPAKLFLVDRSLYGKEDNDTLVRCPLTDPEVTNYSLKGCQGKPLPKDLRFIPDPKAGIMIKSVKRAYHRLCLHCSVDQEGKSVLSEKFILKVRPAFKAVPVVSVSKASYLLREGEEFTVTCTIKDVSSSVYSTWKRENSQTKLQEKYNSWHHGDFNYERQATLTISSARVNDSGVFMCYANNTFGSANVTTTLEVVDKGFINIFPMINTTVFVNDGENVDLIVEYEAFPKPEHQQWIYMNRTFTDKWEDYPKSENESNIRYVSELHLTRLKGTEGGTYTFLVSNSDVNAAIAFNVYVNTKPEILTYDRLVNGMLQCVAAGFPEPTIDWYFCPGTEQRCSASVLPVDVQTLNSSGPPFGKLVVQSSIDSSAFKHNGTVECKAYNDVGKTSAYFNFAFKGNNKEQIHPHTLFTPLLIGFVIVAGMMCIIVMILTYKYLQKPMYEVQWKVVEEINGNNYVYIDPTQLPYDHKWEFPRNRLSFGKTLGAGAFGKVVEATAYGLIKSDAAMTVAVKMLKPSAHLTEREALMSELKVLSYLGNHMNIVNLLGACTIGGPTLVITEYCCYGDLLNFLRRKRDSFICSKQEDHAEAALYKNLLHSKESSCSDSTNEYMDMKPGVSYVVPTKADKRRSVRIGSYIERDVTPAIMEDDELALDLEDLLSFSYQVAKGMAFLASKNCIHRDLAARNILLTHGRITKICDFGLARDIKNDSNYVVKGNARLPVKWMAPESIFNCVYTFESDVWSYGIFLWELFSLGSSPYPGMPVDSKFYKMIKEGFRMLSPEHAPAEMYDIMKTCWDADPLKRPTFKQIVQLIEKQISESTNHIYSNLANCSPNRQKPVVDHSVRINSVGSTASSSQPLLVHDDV

[6] = biological target: CKIT D816V (Homo sapiens, UniProt P10721, D816V); experiment: c-Kit mutant Omnia kinase assay; type: biochemical; settings: read-out: IC50_APP CKIT D816V
CKIT D816V, sequence (P10721 26-976 D816V): as the sequence (P10721 26-976) above, with D791V counted along it

[7] = 30 min pre-incubation, read-out: IC50_APP KDR
[8] = 30 min pre-incubation, read-out: IC50_APP BTK
[9] = reversible reference compounds, read-out: IC50 KDR
[10] = reversible reference compounds, read-out: IC50 BTK
[11] = 30 min pre-incubation, [ATP]=500 μM, read-out: IC50_APP FLT3

- IC50 [1, 7]: 39.7 nM
- IC50 [2, 8]: 106 nM
SMILES: CN(C)C/C=C/C(=O)N1CCC(Sc2nc(Nc3ncc(C#N)s3)cc(N3CCN(C)CC3)n2)CC1 [II-5]

- modification of FAK (PTK2) by compound, mass spec [3]: partial modification of FAK
SMILES: C=CC(=O)Nc1ccc(S(=O)(=O)N2CCN(c3ccc(Nc4ncc(Cl)c(Nc5ccccc5C(=O)NC)n4)c(OC)c3)CC2)cc1 [IV-31, 2-(2-{4-[4-(4-Acryloylamino-benzenesulfonyl)-piperazin-1-yl]-2-methoxy-phenylamino}-5-chloro-pyrimidin-4-ylamino)-N-methyl-benzamide]

- IC50 [1, 9]: 254 nM
- IC50 ([4]; reversible reference compounds, read-out: IC50 FLT3): 5.84 nM
- IC50 [2, 10]: 1640 nM
SMILES: CCC(=O)Nc1ccc(Sc2nc(Nc3ncc(C#N)s3)cc(N3CCN(C)CC3)n2)cc1 [Reversible Reference Compound 1, N-(4-(4-(5-Cyanothiazol-2-ylamino)-6-(4-methylpiperazin-1-yl)pyrimidin-2-ylthio)phenyl)propionamide, reference compound]

- IC50 [1, 7]: 290 nM
- IC50 [2, 8]: 459 nM
SMILES: CC#CC(=O)N1CCC(Sc2nc(Nc3ncc(C#N)s3)cc(N3CCN(C)CC3)n2)CC1 [II-3]

- IC50 [1, 7]: 111 nM
- IC50 [2, 8]: 5080 nM
SMILES: C=CC(=O)NCCSc1nc(Nc2ncc(C#N)s2)cc(N2CCN(C)CC2)n1 [II-4, N-(2-(4-(5-cyanothiazol-2-ylamino)-6-(4-methylpiperazin-1-yl)pyrimidin-2-ylthio)ethyl)acrylamide]

- IC50 [1, 7]: 15.2 nM
- IC50 [4, 11]: 3.76 nM
- IC50 [5]: 114 nM
- IC50 [6]: 127 nM
SMILES: C=CC(=O)Nc1ccc(Sc2nc(Nc3cc(C)n[nH]3)cc(N3CCN(C)CC3)n2)cc1 [II-53, N-(4-(4-(3-Methyl-1H-pyrazol-5-ylamino)-6-(4-methylpiperiazin-1-yl)pyrimidin-2ylthio)phenyl)acrylamide]

- IC50 [1, 7]: 1340 nM
SMILES: C=CC(=O)N(C)c1ccc(NC(=O)Nc2ccc(Oc3ccnc(C(=O)NC)c3)cc2)cc1 [XVIII-16, 4-(4-(3-(4-(N-methylacrylamido)phenyl)ureido)phenoxy)-N-methylpicolinamide]

- IC50 [1, 7]: 39.3 nM
- IC50 [4, 11]: 3.15 nM
- IC50 [2, 8]: 6170 nM
SMILES: C=CC(=O)Nc1ccc(Sc2nc(Nc3ncc(C#N)s3)cc(N3CCN(C)CC3)n2)cc1 [II-1, N-(4-(4-(5-Cyanothiazol-2-ylamino)-6-(4-methylpiperazin-1-yl)pyrimidin-2-ylthio)phenyl)acrylamide]

- IC50 [1, 7]: 148 nM
- IC50 [4, 11]: 1.07 nM
- IC50 [5]: 10.4 nM
- IC50 [6]: 2.5 nM
SMILES: CNC(=O)c1cc(Oc2ccc(NC(=O)Nc3ccc(NC(=O)/C=C/CN(C)C)c(C(F)(F)F)c3)cc2)ccn1 [XVIII-12]

- IC50 [1, 9]: 95.7 nM
- IC50 [2, 10]: 184 nM
SMILES: CCC(=O)N1CCC(Sc2nc(Nc3ncc(C#N)s3)cc(N3CCN(C)CC3)n2)CC1 [Reversible Reference Compound 2, 2-(2-(1-Propionylpiperidin-4-ylthio)-6-(4-methylpiperazin-1-yl)pyrimidin-4-ylamino)thiazole-5-carbonitrile, reference compound]

- IC50 [1, 7]: 462 nM
SMILES: C=CC(=O)Nc1cc(NC(=O)Nc2ccc(Oc3ccnc(C(=O)NC)c3)cc2)ccc1Cl [XVIII-15]
